Laboratory results as given in patent US11832638B2, “N-acyl derivatives of gamma amino-butyric acid and beta alanine as food flavouring compounds” (GIVAUDAN SA, priority 2012, dated 2023).

Experiments:
Test in 3 in 1 coffee = conditions: 1 ppm, 3-in-1 coffee beverage with sucrose and creamer with fat
Description: In a 3 in 1 Coffee beverage from Nestle (market product) sweetened with sucrose and containing creamer with fat C18:2-gaba was added.
(§1) Samples were evaluated by expert tasters. Tasters were asked to describe the samples focusing on authentic taste, mouthfeel, fullness, salivation, sweetness, juiciness, richness, long lastingness and fattiness.
Base is 3-in-1 Coffee beverage (market product) sweetened with sucrose and containing creamer with fat

[1] = Tasting in air expanded base with cheese seasoning; conditions: air expanded base 3% fat
Description: Air Expanded Base An air expanded base (Rice, wheat, Tapioca, potato, salt, sugar, modified starch), containing 3% fat and flavored with cheese seasoning containing salt, MSG, dairy, organic acids, sugars and flavor. The following compounds were added to the base at the indicated levels and the tasting results are reported: […]

Test on Heineken beer = conditions: 0.5 ppm
Description: In Heineken beer (Market Product) C18:2-gaba was added at 0.5 ppm.
Samples were evaluated by expert tasters. Tasters were asked to describe the samples focusing on authentic taste, alcohol impact, malt taste, hop taste, mouthfeel, fullness, salivation, sweetness, bitterness, richness, long lastingness and fattiness.

[2] = UHT milk cream flavoured, non sweetened, different fat levels; conditions: 2 ppm, cream flavour 0.03%
Description: The following tests were carried out on dairy products processed by fermentation, pasteurization or UHT. The products contain fat, protein and calcium.
UHT Milk Cream Flavoured, Non Sweetened and Different Fat Levels
In a UHT milk containing 0% 1.5% and 3% fat, flavoured with a proprietary cream flavour dosed at 0.03%
C18:2-gaba was added at 2 ppm.
Samples were evaluated by expert tasters.
Tasters were asked to describe the samples focusing on authentic taste , mouthfeel, fullness, salivation, sweetness, juiciness, richness, long lastingness and fattiness.

Tasting of baked pizza = conditions: 0.5 PPM in the crust and 0.5 PPM in the tomato sauce, baked in hot air oven at 200 degrees Celsius
Description: Differentiator high temperature 100-250 degrees Celsius in hot air baking process
C18:2-gaba @ 0.5 PPM in the crust and @ 0.5 PPM in the tomato sauce
The pizza was topped off with cheese and baked in a hot air oven @ 200 degrees Celsius

[3] = Test on Baileys cream liqueur; conditions: 1 ppm
Description: Test on Baileys Cream Liqueur:
In Baileys cream liqueur (Market Product) C18:2-gaba was added at 1 ppm.
Samples were evaluated by expert tasters. Tasters were asked to describe the samples focusing on authentic taste, alcohol impact, mouthfeel, fullness, salivation, sweetness, bitterness, richness, long lastingness and fattiness.
Base is Baileys cream liqueur

[4] = Tasting in fish based product (fish sauce)
Description: (§2) The following formulations were prepared and tasted by trained panelists.
(§3) Salt level pure product between 5-40%
(§4) Salt level in application 0.3-1.0%
C18:2-gaba-(0.5 ppm) was added to a 1% diluted fish sauce sauce (0.27% salt).
C18:2-gaba-(0.5 ppm) was added to pure fish sauce (27% salt).

[5] = Test on Kikkoman soy sauce low salt; conditions: 0.5 ppm
Description: Test on Kikkoman Soy Sauce Low Salt
Base is Kikkoman soy sauce

[6] = Calve 60% reduced fat mayonnaise; conditions: 0.5 ppm, Calve mayonnaise 60% reduced fat
Description: Calve 60% Reduced Fat Mayonnaise
Base is Calve Mayonnaise 60% reduced fat (market Product)

[7] = UHT sweetened banana flavoured milk, different fat levels; conditions: banana flavour 0.04%
Description: UHT Sweetened Banana Flavoured Milk, With Different Fat Levels
In a UHT milk with 0% and 3% fat sweetened with 4% sucrose by weight, flavoured with proprietary banana flavour dosed at 0.04%. C18:2 gaba was added at 0.25 ppm, 0.5 ppm and 1 ppm.
as §1

[8] = Test in pineapple flavoured drink; conditions: 1 ppm, water, 8% sugar, 0.1% citric acid, pineapple flavour 0.03%
Description: Test in Pineapple Flavoured Drink:
Base is water, 8% sugar, 0.1% citric acid and proprietary pineapple flavour at 0.03%

[9] = Test in chocolate flavoured drink; conditions: 2 ppm, water, 4% sucrose, chocolate flavour 0.03%
Description: Test in Chocolate Flavoured Drink:
Base: Water, 4% sucrose, proprietary chocolate flavour at 0.03%

Test on Breezer Orange = conditions: 0.5 ppm
Description: Samples were evaluated by expert tasters. Tasters were asked to describe the samples focusing on authentic taste, alcohol impact, juiciness, mouthfeel, fullness, salivation, sweetness, bitterness, richness, long lastingness and fattiness.

[10] = Activa strawberry yoghurt; conditions: 2 ppm, full fat Activa strawberry flavoured yoghurt
Description: Activa Strawberry Yoghurt
In a Full fat, Activa strawberry flavoured yoghurt C18:2-gaba

[11] = Tasting in soy based product (salt reduced kikoman soy sauce)
Description: as §2, §3, §4
C18:2-gaba-(0.5 ppm) was added to a 1% diluted salt reduced kikoman soy sauce (9% salt).
C18:2-gaba-(0.5 ppm) was added to pure salt reduced kikoman soy sauce (9% salt).

[12] = Test on Tang powdered soft drink; conditions: 0.5 ppm, orange flavoured Tang
Description: In an orange flavoured Tang powdered soft drink (market product) sweetened with sucrose plus high intensity sweetener and containing citric acid and C18:2-gaba.
All samples were evaluated by expert tasters. Tasters were asked to describe the samples focusing on authentic taste, mouthfeel & body, enhancement, richness, juiciness, long lastingness, salivation, sweetness, masking off notes of high intensity sweetener
Base is Orange flavoured Tang

[13] = Yoghurt cream flavoured non-sweetened, different fat levels; conditions: 2 ppm, cream flavour 0.03%
Description: Yoghurt Cream Flavoured Non-sweetened And Different Fat Levels
In a Yoghurt containing 0% 1.5% and 3% fat, flavoured with proprietary cream flavour dosed at 0.03%, C18:2-gaba was added at 2 ppm. Samples were evaluated by expert tasters. Tasters were asked to describe the samples focusing on authentic taste, mouthfeel, fullness, salivation, sweetness, juiciness, richness, long lastingness and fattiness.

[14] = Comparison in a mango juice drink; conditions: 2 ppm, 8% sucrose, 0.1% citric acid, 0.18 g clear mango juice, mango flavour 0.05%
Description: Comparison in a Mango Juice Drink
Base is 8% sucrose, 0.1% citric acid, 0.18 g clear mango juice, and a proprietary mango flavour at 0.05%.

CCCCC/C=C\C/C=C\CCCCCCCC(=O)NCCCC(=O)O [C18:2-gaba]
description by expert tasters (Test in 3 in 1 coffee): very nice mouthfeel effect, creamy as if coffee creamer is added, more sweet
tasting result ([1]; 0.5 ppm): Increased dairy, cheese
tasting result ([1]; 1 ppm): Fatty full, cheesy, cheese crust, long lasting, cover base
description by expert tasters (Test on Heineken beer): more hoppy, more bitter, more malt and stronger alcohol impact
description by expert tasters ([2]; UHT milk 0% fat): Very creamy, milky, long lasting
description by expert tasters ([2]; UHT milk 1.5% fat): very creamy, milky, long lasting, salivating
description by expert tasters ([2]; UHT milk 3.0% fat): very creamy, milky, long lasting, taste like whipped cream
taste of crust, tomato and aftertaste of pizza (Tasting of baked pizza): less dry, more succulent and the tomato was richer, sweeter and the total lingering aftertaste was very rich and pleasant
description by expert tasters [3]: strongly enhanced alcohol effect, more cocoa, very creamy and long lasting aftertaste
tasting result (trained panelists) ([4]; 0.5 ppm in 1% diluted fish sauce (0.27% salt)): stronger in umami, longer lasting and richer
tasting result (trained panelists) ([4]; 0.5 ppm in pure fish sauce (27% salt)): strong in body and mouthfeel, more salty, richer with more rounded fish notes
taste description [5]: much more salty, sweet and long lasting
taste description [6]: full, rich , creamy, more egg yolk taste
description by expert tasters ([7]; 0.25 ppm, UHT milk 0% fat): fuller banana, more authentic, more sweet
description by expert tasters ([7]; 0.25 ppm, UHT milk 3% fat): more authentic, less estery and more round
description by expert tasters ([7]; 0.5 ppm, UHT milk 0% fat): fuller banana, authentic, creamy and sweet
description by expert tasters ([7]; 0.5 ppm, UHT milk 3% fat): creamy banana
description by expert tasters ([7]; 1 ppm, UHT milk 0% fat): creamy, creamy banana, sweet aftertaste
description by expert tasters ([7]; 1 ppm, UHT milk 3% fat): creamy long lasting and more authentic and more impact
taste description [8]: very ripe, jammy, long lasting and sweet
taste description [9]: full, sweeter, more vanillic, milk chocolate is enhanced, very long lasting
description by expert tasters (Test on Breezer Orange): more alcoholic, sweeter, more juicy orange, less soapy
taste description [10]: very creamy, full and fresh strawberry
tasting result (trained panelists) ([11]; 0.5 ppm in 1% diluted salt reduced kikoman soy sauce (9% salt)): stronger, more umami, long lasting, richer
tasting result (trained panelists) ([11]; 0.5 ppm in pure salt reduced kikoman soy sauce (9% salt)): strong in body and mouthfeel,and more salty
description by expert tasters [12]: enhances sweet juicy orange notes, enhanced mouthfeel. Additionally, the off-notes of the high intensity sweetener were suppressed
description by expert tasters ([13]; yoghurt 0% fat): less acdic, slight creamy aftertaste
description by expert tasters ([13]; yoghurt 1.5% fat): very creamy, thick, nice long lasting, whipped cream note
description by expert tasters ([13]; yoghurt 3% fat): less acidic, much more creamy, very long lasting creamy aftertaste
taste description [14]: full long lasting nice juicy, almost a bit salty
taste description ([14]; listed as C18:2 gaba): fatty skin like, juicy, authentic
